Data reported in PubChem BioAssay AID1963975 (Molecular Pharmacology Branch, DTP, NCI, 2024).

System: 624824-186-R-J2-PDC multicell spheroids, viability
Assay: Anticancer human tumor 624824-186-R-J2-PDC patient-derived colon adenocarcinoma cell line growth inhibition [PI3K]
Conditions: for IC50: curve of first compound; for viability, T/C: stronger effect = lower value
Text: Combinatorial screen of targeted agents with the PI3K inhibitors inavolisib, alpelisib, duvelisib, and copanlisib in multi-cell type tumor spheroids
A high-throughput screen of multi-cell type tumor spheroids was designed to identify active combinations of targeted small molecules and PI3K pathway inhibitors. Complex spheroids include a stromal component modeled by human endothelial cells (HUVEC) and fibroblasts modeled by human mesenchymal stem cells (MSCs). The concentration ranges selected for each drug and investigational agent were based upon clinically achievable concentrations if the clinical Cmax of the agent was known.
Compounds. The drugs and investigational agents: inavolisib (NSC800729), alpelisib (NSC765974), duvelisib (NSC772469), copanlisib (NSC816437), ipatasertib (NSC767898), afuresertib (NSC778305), talazoparib (NSC767125), sapanisertib (NSC764658), selumetinib (NSC741078), tovorafenib (DAY101, NSC766906), vemurafenib (NSC761431), ravoxertinib (NSC781343), sotorasib (NSC818433), MRTX1133 (NSC 836407), abemaciclib (NSC 768073), palbociclib (NSC758247), venetoclax (NSC 766270), SY5609 (NSC837396), enzalutamide (NSC755605), and darolutamide (NSC825331), were obtained from the National Cancer Institute (NCI) Developmental Therapeutics Program Chemical Repository. The FDA-approved anticancer drug set is available from the NCI Developmental Therapeutics Program. […] The stock solutions were prepared in dimethyl sulfoxide (DMSO, Sigma-Aldrich, St. Louis, MO, cat. D2650) at 800-fold the tested concentration and stored at -70 degrees C prior to their use. All drugs and investigational agents were tested over a range starting from a high concentration at or near the clinical Cmax and decreasing in half-log increments. If the clinical Cmax for an agent had not been determined, the highest concentration tested was 10 microM.
Cell Culture. All cells were maintained in an incubator at 37 degrees C and 5% CO2 with 95% humidity. The PDC lines were cultured according to standard operating procedures established by the NCI PDMR (https://pdmr.cancer.gov/sops/default.htm). All PDCs were thawed and cultured in Matrigel-coated flasks prepared with a working solution of 1X Ham's F-12 nutrient mix, without supplementation (Invitrogen, Waltham, MA, cat. 11765054), 100 U/mL penicillin-streptomycin (Invitrogen, cat. 15140122), and 2.5% Matrigel (Corning Inc., Corning, NY, cat. 354248) for the first three passages. The 354836-022-R-J1-PDC, 475296-252-R-J1-PDC, and 997726-040-R-J2-PDC lines were cultured in 6A media, which includes advanced DMEM/F-12 (Thermo Fisher Scientific, cat. 12634028), 10 mM HEPES (Thermo Fisher Scientific, cat. 15630080), 1X GlutaMAX supplement (Thermo Fisher Scientific, cat. 35050061), 0.1 mg/mL primocin (InvivoGen, San Diego, CA, cat. ant-pm-2), 10% defined fetal bovine serum, heat inactivated (HyClone Laboratories Inc., Logan, UT, cat. SH30070.03HI), 50% L-WRN conditioned media (ATCC, cat. CRL-3276), 1.25 mM N-Acetyl-L-cysteine (Sigma-Aldrich, cat. A9165), 10 mM nicotinamide (Sigma-Aldrich, cat. N0636), 1X B-27 supplement (Thermo Fisher Scientific, cat. 17504044), 1X N-2 supplement (Thermo Fisher Scientific, cat. 17502048), and 10 microM Y-27632 dihydrochloride (Tocris Bioscience, Bristol, United Kingdom, cat. 1254). The 624824-186-R-J2-PDC line was cultured in 6C/Colon 1B media, which includes all 6A media components plus 50 ng/mL human EGF recombinant protein (Thermo Fisher Scientific, cat. PHG0311). […]

[1] = second compound 0.00316 µM, first compound 0.0316 µM
[2] = second compound 0.00316 µM, first compound 0.1 µM
[3] = second compound 0.00316 µM, first compound 0.316 µM
[4] = second compound 0.00316 µM, first compound 1 µM
[5] = second compound 0.00316 µM, first compound 3.16 µM
[6] = second compound 0.00316 µM, first compound 10 µM
[7] = second compound 0.01 µM, first compound 0.0316 µM
[8] = second compound 0.01 µM, first compound 0.1 µM
[9] = second compound 0.01 µM, first compound 0.316 µM
[10] = second compound 0.01 µM, first compound 1 µM
[11] = second compound 0.01 µM, first compound 3.16 µM
[12] = second compound 0.01 µM, first compound 10 µM
[13] = second compound 0.0316 µM, first compound 0.0316 µM
[14] = second compound 0.0316 µM, first compound 0.1 µM
[15] = second compound 0.0316 µM, first compound 0.316 µM
[16] = second compound 0.0316 µM, first compound 1 µM
[17] = second compound 0.0316 µM, first compound 3.16 µM
[18] = second compound 0.0316 µM, first compound 10 µM
[19] = second compound 0.1 µM, first compound 0.0316 µM
[20] = second compound 0.1 µM, first compound 0.1 µM
[21] = second compound 0.1 µM, first compound 0.316 µM
[22] = second compound 0.1 µM, first compound 1 µM
[23] = second compound 0.1 µM, first compound 3.16 µM
[24] = second compound 0.1 µM, first compound 10 µM
[25] = second compound 0.316 µM, first compound 0.0316 µM
[26] = second compound 0.316 µM, first compound 0.1 µM
[27] = second compound 0.316 µM, first compound 0.316 µM
[28] = second compound 0.316 µM, first compound 1 µM
[29] = second compound 0.316 µM, first compound 3.16 µM
[30] = second compound 0.316 µM, first compound 10 µM
[31] = second compound 1 µM, first compound 0.0316 µM
[32] = second compound 1 µM, first compound 0.1 µM
[33] = second compound 1 µM, first compound 0.316 µM
[34] = second compound 1 µM, first compound 1 µM
[35] = second compound 1 µM, first compound 3.16 µM
[36] = second compound 1 µM, first compound 10 µM
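Also: spheroids exposed to agents for 7 days before viability read.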
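For viability, T/C in this document: 100% = DMSO vehicle treated spheroids.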

## C#Cc1c(F)ccc2cc(O)cc(-c3ncc4c(N5CC6CCC(C5)N6)nc(OCC56CCCN5CC(F)C6)nc4c3F)c12 (centres undefined) + COc1c(OCCCN2CCOCC2)ccc2c3n(c(=NC(=O)c4cnc(N)nc4)nc12)CCN3
Second compound 0.00316 µM
  IC50: > 10 µM
Second compound 0.01 µM
  IC50: > 10 µM
Second compound 0.0316 µM
  IC50: > 10 µM
Second compound 0.1 µM
  IC50: > 10 µM
Second compound 0.316 µM
  IC50: > 10 µM
Second compound 1 µM
  IC50: 6.78 µM
[1]
  viability, T/C: 89.2%
[2]
  viability, T/C: 101%
[3]
  viability, T/C: 73.6%
[4]
  viability, T/C: 91.6%
[5]
  viability, T/C: 87.9%
[6]
  viability, T/C: 80.8%
[7]
  viability, T/C: 92.8%
[8]
  viability, T/C: 90.2%
[9]
  viability, T/C: 89.8%
[10]
  viability, T/C: 78.5%
[11]
  viability, T/C: 89.9%
[12]
  viability, T/C: 95.4%
[13]
  viability, T/C: 94.3%
[14]
  viability, T/C: 77.2%
[15]
  viability, T/C: 92.6%
[16]
  viability, T/C: 77.5%
[17]
  viability, T/C: 80.6%
[18]
  viability, T/C: 81.5%
[19]
  viability, T/C: 78.8%
[20]
  viability, T/C: 76.9%
[21]
  viability, T/C: 66.2%
[22]
  viability, T/C: 68.3%
[23]
  viability, T/C: 72.8%
[24]
  viability, T/C: 72.2%
[25]
  viability, T/C: 72.6%
[26]
  viability, T/C: 59.4%
[27]
  viability, T/C: 65%
[28]
  viability, T/C: 60.4%
[29]
  viability, T/C: 58.5%
[30]
  viability, T/C: 56.4%
[31]
  viability, T/C: 60.1%
[32]
  viability, T/C: 59.9%
[33]
  viability, T/C: 52.9%
[34]
  viability, T/C: 56%
[35]
  viability, T/C: 50.8%
[36]
  viability, T/C: 49.3%

## CC(Cn1ccc(-c2ccc(C#N)c(Cl)c2)n1)NC(=O)c1cc(C(C)O)[nH]n1 (centres undefined) + COc1c(OCCCN2CCOCC2)ccc2c3n(c(=NC(=O)c4cnc(N)nc4)nc12)CCN3
Second compound 0.00316 µM
  IC50: > 10 µM
Second compound 0.01 µM
  IC50: > 10 µM
Second compound 0.0316 µM
  IC50: > 10 µM
Second compound 0.1 µM
  IC50: > 10 µM
Second compound 0.316 µM
  IC50: > 10 µM
Second compound 1 µM
  IC50: > 10 µM
[1]
  viability, T/C: 86.3%
[2]
  viability, T/C: 79%
[3]
  viability, T/C: 106%
[4]
  viability, T/C: 98.5%
[5]
  viability, T/C: 71.5%
[6]
  viability, T/C: 117%
[7]
  viability, T/C: 87.1%
[8]
  viability, T/C: 89.7%
[9]
  viability, T/C: 98%
[10]
  viability, T/C: 84.8%
[11]
  viability, T/C: 99.6%
[12]
  viability, T/C: 114%
[13]
  viability, T/C: 102%
[14]
  viability, T/C: 88.1%
[15]
  viability, T/C: 90.7%
[16]
  viability, T/C: 84.5%
[17]
  viability, T/C: 92%
[18]
  viability, T/C: 97.2%
[19]
  viability, T/C: 76.9%
[20]
  viability, T/C: 73.2%
[21]
  viability, T/C: 71.6%
[22]
  viability, T/C: 76.6%
[23]
  viability, T/C: 85.1%
[24]
  viability, T/C: 80%
[25]
  viability, T/C: 61.4%
[26]
  viability, T/C: 70.2%
[27]
  viability, T/C: 55.3%
[28]
  viability, T/C: 62.2%
[29]
  viability, T/C: 68.1%
[30]
  viability, T/C: 63.8%
[31]
  viability, T/C: 63%
[32]
  viability, T/C: 58.6%
[33]
  viability, T/C: 62.7%
[34]
  viability, T/C: 63.6%
[35]
  viability, T/C: 63.4%
[36]
  viability, T/C: 59%
